Assay results: paper PMC2580802 (Cell, 2008)
Converted amounts (≈) assume the structure as drawn. Like-named read-outs stand apart in the source and are kept apart here.

What was measured:
eukaryotic RNAP II = settings: cited from earlier work
[1] = test system: E. coli with wild-type RNAP β′ and wild-type RNAP β; test: microbe, parasite or virus in culture; type: cell-based; settings: Escherichia coli
bacterial RNAP = settings: read-out: IC50, inhibition of bacterial RNAP; cited from earlier work
wild-type RNAP [2] = target: T1, wild-type RNAP (Escherichia coli, UniProt P0A8T7+P0A8V2)
wild-type RNAP [3] = target: T1, wild-type RNAP; remark: listed apart in the source
E. coli DH21f2tolC = type: cell-based; settings: assessed with E. coli DH21f2tolC; J.M. and R.H.E., unpublished
Staphylococcus aureus = settings: ref Irschik et al., 1995; J.M. and R.H.E., unpublished; cited from earlier work
[4] = test system: Escherichia coli DH21tolC; settings: ref Irschik et al., 1995; J.M. and R.H.E., unpublished; cited from earlier work
[5] = test system: E. coli mutants with single substitutions in RNAP β′ or β subunit; type: cell-based
[6] = target: T2, Myx^r RNAP ([Arg345]β′-RNAP) (Escherichia coli, UniProt P0A8T7+P0A8V2, K345R); type: biochemical, E. coli
[7] = target: T. thermophilus RNAP holoenzyme (Thermus thermophilus, UniProt Q8RQE8+Q8RQE9); type: biochemical; settings: read-out: IC50, inhibition of T. thermophilus RNAP holoenzyme
Enterobacter cloacae = settings: cited from earlier work
[8] = target: T2, Myx^r RNAP ([Arg345]β′-RNAP)

## C/C=C/C/C=C(\C)C(O)CC/C(C)=C/C=C(\C)C(=O)c1c(O)cc([C@H](C)CC/C=C/NC(=O)OC)oc1=O (stereo partly shown) [Cor, corallopyronin A]
Eukaryotic RNAP II
  inhibition of eukaryotic RNAP II: does not inhibit
[1]
  MIC: 1.6 µg/mL (≈ 3.03 µM)
Bacterial RNAP
  IC50: ~4000 nM
wild-type RNAP [2]
  effect on interaction of RNAP with promoter DNA: prevents interaction of RNAP with promoter DNA
wild-type RNAP [3]
  effect on transcription initiation: inhibits transcription initiation
E. coli DH21f2tolC
  bacteriocidal activity: bacteriocidal

## C/C(=C\Cc1ccccc1)CC[C@@]1(O)C[C@H]2C[C@@H](C/C(C)=C/C/C=C/C/C(CC(=O)O)=C\C(=O)O2)O1 [Rip, ripostatin A]
Eukaryotic RNAP II
  inhibition of eukaryotic RNAP II: does not inhibit
Staphylococcus aureus
  MIC: ≤ 1 µg/mL
Bacterial RNAP
  IC50: ~800 nM
[4]
  MIC: ≤ 1 µg/mL
wild-type RNAP [2]
  effect on interaction of RNAP with promoter DNA: prevents interaction of RNAP with promoter DNA
wild-type RNAP [3]
  effect on transcription initiation: inhibits transcription initiation
E. coli DH21f2tolC
  bacteriocidal activity: bacteriocidal

## CO[C@H]1/C=C/O[C@@]2(C)Oc3c(C)c(O)c4c(O)c(c(/C=N/N5CCN(C)CC5)c(O)c4c3C2=O)NC(=O)/C(C)=C\C=C\[C@H](C)[C@H](O)[C@@H](C)[C@@H](O)[C@@H](C)[C@H](OC(C)=O)[C@@H]1C [Rif, rifampicin]
[1]
  MIC: 0.1 µg/mL (≈ 0.122 µM)
[5]; Myx^r mutants (Table 1)
  cross-resistance of Myx^r mutants: do not exhibit cross-resistance

## CCC/C(C)=C/C=C(\C)C(=O)c1c(O)cc([C@H](C)CC/C=C/NC(=O)OC)oc1=O [Myx, myxopyronin A]
[6]
  inhibition of transcription with Myx^r RNAP: abrogates inhibition
Eukaryotic RNAP II
  inhibition of eukaryotic RNAP II: does not inhibit
[7]
  IC50: 20000 nM
Enterobacter cloacae
  MIC: ≤ 12.5 µg/mL
Bacterial RNAP
  IC50: ~1000 nM
wild-type RNAP [2]; fork-junction DNA fragment (lacks positions −11 to +15 of template strand)
  inhibition of formation of stable, heparin-resistant RNAP-DNA complex: does not inhibit
wild-type RNAP [2]; nontemplate-strand oligonucleotide (positions −21 to +15)
  inhibition of formation of stable, heparin-resistant RNAP-DNA complexes: does not inhibit
wild-type RNAP [2]; read-out: IC50, inhibition of formation of stable, heparin-resistant RNAP-promoter open complex, promoter DNA fragment
  IC50: 800 ± 300 nM
[8]
  inhibition of open-complex formation with Myx^r RNAP: abrogates inhibition
wild-type RNAP [3]; read-out: IC50, inhibition of formation of abortive products, run-off transcription, promoter DNA fragment
  IC50: 1700 ± 600 nM
[5]; all four Myx^r mutants from random mutagenesis (Table S1)
  increase in MIC: ≥ 2 fold
[5]; three of four Myx^r mutants from random mutagenesis (Table S1)
  increase in MIC: ≥ 32 fold
E. coli DH21f2tolC
  bacteriocidal activity: bacteriocidal
